{
  "source": "patent US20260240772A1",
  "about": "(priority 2022, published 2026)",
  "key": {"normal mice [1]": {"tested_on": "normal mice", "conditions": "subcutaneous injection 10 mg kg^−1; 5-30 min; FIG. 10B"}, "normal mice [2]": {"tested_on": "normal mice", "conditions": "subcutaneous injection 10 mg kg^−1; 1 hour after injection; FIG. 10G"}},
  "data": [
    {"smiles": "CN1CC[C@]23c4c5ccc(O)c4O[C@H]2[C@@H](O)C=C[C@H]3[C@H]1C5", "note": "[morphine single drug, morphine]", "values": [
      {"measurement": "heart rate compared with conditions before administration", "setting": "normal mice [1]", "result": "remarkably reduced"},
      {"measurement": "number of fecal particles compared with the solvent group", "setting": "normal mice [2]", "result": "remarkably reduced"}
    ]}
  ]
}
